Data published in patent EP2057185B1, “POLYMYXIN DERIVATIVES AND USES THEREOF” (Northern Antibiotics Oy, priority 2006, dated 2008).
Bridge positions count the residues as written; N and C are the ends. Square brackets hold non-standard residues; d marks the D form. Peptide text beside a SMILES is read from it. * marks the point of attachment. Octanoyl = CCCCCCCC(=O)*; Dab = NCC[C@H](N)C(=O)O; Abu = CC[C@H](N)C(=O)O

Legend:
[1] = system: E. coli IH3080; assay: Growth inhibition around wells on LB agar plates; type: cell-based, Escherichia coli; details: 18 h at 37°C; for Antibacterial activity at 4 µg: growth inhibition area around a well containing 4 µg of compound; for Antibacterial activity at 10 µg: growth inhibition area around a well containing 10 µg of compound
Experimental: Peptides synthesized in Example 1, all carrying at least two (2) but not more than three (3) positive charges, were studied for their ability to inhibit the growth of E. coli. This was tested employing LB agar (LB Agar Lennox, Difco, BD, Sparks, MD, U.S.A) plates. The indicator organism E. coli IH3080 (K1:O18) was an encapsulated strain originally isolated from a neonate suffering from meningitis (Vaara et al. 1984) and obtained from National Public Health Institute, Helsinki, Finland.
(§1) From an overnight-grown culture of IH3080 on LB agar, a suspension of approx. 10^8 cells/ml was prepared in 0.9% NaCl. Aliquots of this suspension were then pipetted on the agar plates and the plates were gently shaken to spread the suspension evenly on the entire surface of the plate. Thereafter, the unabsorbed part of the suspension was removed by using a Pasteur pipette. After the surface had dried, small wells (diameter, 2 mm) were drilled on the plates (five wells per plate) by using a sterile sharp-edged narrow metal tube, single-use pipette tip, and vacuum suction. […] Controls included 0.9% NaCl solution without the compound to be tested. The plates were then incubated for 18 h at 37°C whereafter the diameters of growth inhibition zones around each well were measured; the diameter of the well itself was […]. Finally, the diameters were converted to surface areas of growth inhibition (in square mm).

[2] = system: A. baumannii ATCC 19606; assay: Growth inhibition around wells on LB agar plates; type: cell-based, Acinetobacter baumannii; details: for Antibacterial activity 4 µg: growth inhibition area around a well containing 4 µg; for Antibacterial activity 10 µg: growth inhibition area around a well containing 10 µg
Experimental: (§2) From an overnight-grown culture of IH3080 on LB agar, a suspension of approx. 10^8 cells/ml was prepared in 0.9% NaCl. Aliquots of this suspension were then pipetted on the agar plates and the plates were gently shaken to spread the suspension evenly on the entire surface of the plate. Thereafter, the unabsorbed part of the suspension was removed by using a Pasteur pipette. After the surface had dried, small wells (diameter, 2 mm) were drilled on the plates (five wells per plate) by using a sterile sharp-edged narrow metal tube, single-use pipette tip, and vacuum suction. Samples (4 µl and 10 µl) of the peptide solution in 0.9% NaCl (at concentrations of 1 µg/ml and 0.1 µg/ml) were then pipetted to the wells and the sample fluids were allowed to absorb. Controls included 0.9% NaCl solution without the compound to be tested. The plates were then incubated for 18 h at 37°C whereafter the diameters of growth inhibition zones around each well were measured; the diameter of the well itself was […]. Finally, the diameters were converted to surface areas of growth inhibition (in square mm).
(§3) Direct antibacterial activity of twelve NAB compounds against Acinetobacter baumannii ATCC 19606 and Pseudomonas aeruginosa ATCC 27853 was tested by using the susceptibility determination method described in Example 2. Five compounds (NAB7062, NAB734, NAB737, NAB739, and NAB740) had notable activity against A. baumannii. […] The antibacterial activity of NAB739 and NAB740 were as strong as or even stronger than that of polymyxin B.

[3] = system: Ps. aeruginosa ATCC 27853; assay: Growth inhibition around wells on LB agar plates; type: cell-based, Pseudomonas aeruginosa; details: for Antibacterial activity 4 µg: growth inhibition area around a well containing 4 µg; for Antibacterial activity 10 µg: growth inhibition area around a well containing 10 µg
Experimental: as §2, §3

[4] = system: E. coli IH3080; assay: Growth inhibition around wells on LB plates containing rifampin (sensitization); type: cell-based, Escherichia coli; details: well containing 4 µg of compound; for Antibacterial activity in the presence of rifampin concn (µg/ml) of 0: plates with no rifampin; for Antibacterial activity in the presence of rifampin concn (µg/ml) of 0.1: rifampin 0.1 µg/ml; for Antibacterial activity in the presence of rifampin concn (µg/ml) of 1.0: rifampin 1.0 µg/ml
Experimental: as §1, with “mm). […] Louis, MO, U.S.A).” for “mm).”

[5] = system: E. cloacae ATCC23355
Experimental: (§4) MICs were determined by using E-strips (Biodisk Ltd., Solna, Sweden) according to the manufacturer's instructions.
(§5) The strains originated from ATCC (11 strains), CCUG (11 strains), and NCTC (The National Collection of Type Cultures, Colindale, U.K.; 2 strains). Eight strains (the F-strains) were purchased from Mobidiag Ltd., Helsinki, Finland.

[6] = system: E. coli IH3080
Experimental: as §4, §5

[7] = system: K. pneumoniae ATCC13883
Experimental: as §4, §5

[8] = system: three strains of A. baumannii; assay: E-strip MIC, summary over A. baumannii strains of Example 8; type: cell-based, Acinetobacter baumannii; details: NAB7061 4 µg/ml
Experimental: as §4, §5

[9] = Two-week intravenous toxicity study in young rats; type: in vivo; details: for rise of blood urea nitrogen (BUN) over control or low dose group: 16 mg/kg/day
Experimental: Toxicity in young rats (weighing approx. 150 g in the beginning of the study) was determined by administering doses (1, 2, 4, 8, 16, and 32 mg/kg per day) of NAB7061 as well as the control compound polymyxin B intravenously twice (2) a day for two weeks. A group of ten (10) rats was studied for each dosis regimen. Clinical observations were made daily, the body weight measured twice weekly, and the food consumption twice weekly. In the end of week 2, all animals were sacrificed.
Histopathology of kidneys was performed for each animals and histopathology of all tissues was performed in three high-dose groups receiving NAB7061.

[10] = E. cloacae ATCC23355, 4 µg/ml of NAB 7061
[11] = E. coli IH3080, 4 µg/ml of NAB 7061
[12] = K. pneumoniae ATCC1 3883, 4 µg/ml of NAB 7061

CCCCCCCC(=O)N[C@H](C(=O)N[C@@H](CC)C(=O)N[C@H]1CCNC(=O)[C@H]([C@@H](C)O)NC(=O)[C@H](CCN)NC(=O)[C@H](CCN)NC(=O)[C@H](CC(C)C)NC(=O)[C@@H](Cc2ccccc2)NC(=O)[C@H](CCN)NC1=O)[C@@H](C)O [NAB 7061, OA-Thr-Abu-cy[Dab-Dab-DPhe-Leu-Dab-Dab-Thr-]] (Octanoyl-T[Abu][Dab][Dab][dF]L[Dab][Dab]T; lactam 3-C)
Antibacterial activity at 4 µg [1]: 0 square millimeters | Antibacterial activity at 10 µg [1]: 50 square millimeters | Antibacterial activity 4 µg [2]: 0 square millimeters | Antibacterial activity 10 µg [2]: 0 square millimeters | Antibacterial activity 4 µg [3]: 0 square millimeters | Antibacterial activity 10 µg [3]: 0 square millimeters | Antibacterial activity in the presence of rifampin concn (µg/ml) of 0 [4]: 0 square millimeters | Antibacterial activity in the presence of rifampin concn (µg/ml) of 0.1 [4]: […] | Antibacterial activity in the presence of rifampin concn (µg/ml) of 1.0 [4]: 155 square millimeters | MIC (µg/ml) of clarithromycin in the presence of 4 µg/ml of NAB 7061 ([5]; E. cloacae ATCC23355): 0,25 - 0,75 µg/ml | MIC (µg/ml) of rifampin in the presence of 4 µg/ml of NAB 7061 ([5]; E. cloacae ATCC23355): 0,008 - 0,016 µg/ml | Sensitization factor to clarithromycin [5, 10]: […] | Sensitization factor to rifampin [5, 10]: […] | MIC of NAB7061 ([5]; E. cloacae ATCC23355, Mueller-Hinton agar): […] | MIC (µg/ml) of clarithromycin in the presence of 4 µg/ml of NAB 7061 ([6]; E. coli IH3080): […] | MIC (µg/ml) of rifampin in the presence of 4 µg/ml of NAB 7061 ([6]; E. coli IH3080): […] | Sensitization factor to clarithromycin [6, 11]: […] | Sensitization factor to rifampin [6, 11]: […] | MIC of NAB7061 ([6]; E. coli IH3080, Mueller-Hinton agar): […] | MIC (µg/ml) of clarithromycin in the presence of 4 µg/ml of NAB 7061 ([7]; K. pneumoniae ATCC1 3883): […] | MIC (µg/ml) of rifampin in the presence of 4 µg/ml of NAB 7061 ([7]; K. pneumoniae ATCC1 3883): […] | Sensitization factor to clarithromycin [7, 12]: […] | Sensitization factor to rifampin [7, 12]: […] | MIC of NAB7061 ([7]; K. pneumoniae ATCC13883, Mueller-Hinton agar): […] | resulting MIC values to clarithromycin [8]: ≤ 0.5 mg/L | resulting MIC values to rifampin [8]: ≤ 0.125 mg/L | rise of blood urea nitrogen (BUN) over control or low dose group ([9]; rat, in vivo): no such a rise was found | general pathology and histopathology of organs and kidneys ([9]; rat, in vivo, iv): No NAB7061-related pathological findings | lowest dose that negatively influenced the body weight gain ([9]; rat, in vivo, iv): 8 mg/kg | rise of blood urea nitrogen (BUN) ([9]; rats, 32 mg/kg per day, end of the study): 7% | survival ([9]; rats, 1 to 32 mg/kg per day intravenously, two weeks): all rats receiving NAB7061 remained alive throughout the study

Polymyxin B
Antibacterial activity at 4 µg [1]: 79 square millimeters | Antibacterial activity at 4 µg ([1]; listed as Polymyxin B sulfate): 95 square millimeters | Antibacterial activity at 10 µg [1]: 133 square millimeters | Antibacterial activity 4 µg [2]: 113 square millimeters | Antibacterial activity 10 µg [2]: 154 square millimeters | Antibacterial activity 4 µg [3]: 95 square millimeters | Antibacterial activity 10 µg [3]: 133 square millimeters | Antibacterial activity in the presence of rifampin concn (µg/ml) of 0 [4]: 79 square millimeters | Antibacterial activity in the presence of rifampin concn (µg/ml) of 0.1 [4]: 95 square millimeters | Antibacterial activity in the presence of rifampin concn (µg/ml) of 1.0 [4]: 104 square millimeters | Sensitization factor ([5]; ratio of the MIC of the antibiotic in the absence of NAB 7061 to that in the presence of 4 µg/ml of NAB 7061, E. cloacae ATCC 23355): 4 | Sensitization factor ([6]; ratio of the MIC of the antibiotic in the absence of NAB 7061 to that in the presence of 4 µg/ml of NAB 7061, E. coli IH 3080): 2 | Sensitization factor ([7]; ratio of the MIC of the antibiotic in the absence of NAB 7061 to that in the presence of 4 µg/ml of NAB 7061, K. pneum. ATCC 13883): 1 | rise of blood urea nitrogen (BUN) over control or low dose group ([9]; rat, in vivo): 15% | mortality ([9]; rats, 32 mg/kg per day intravenously, two weeks): 100%
